In patent publication US9822130B2, “Triazolo-pyrazinyl derivatives useful as soluble guanylate cyclase activators” (Merck Sharp & Dohme Corp., priority 2014, dated 2017) one finds EC50 data, which are given here for 16 molecules.

This assay addresses T1, sGC α1/β1 heterodimer stably expressed in CHO-K1 cell line (CHO-K1/sGC) (Homo sapiens, UniProt Q02108+Q02153).
T1 construct: expressed in transfected cells
T1 sequence (Q02108 1-690): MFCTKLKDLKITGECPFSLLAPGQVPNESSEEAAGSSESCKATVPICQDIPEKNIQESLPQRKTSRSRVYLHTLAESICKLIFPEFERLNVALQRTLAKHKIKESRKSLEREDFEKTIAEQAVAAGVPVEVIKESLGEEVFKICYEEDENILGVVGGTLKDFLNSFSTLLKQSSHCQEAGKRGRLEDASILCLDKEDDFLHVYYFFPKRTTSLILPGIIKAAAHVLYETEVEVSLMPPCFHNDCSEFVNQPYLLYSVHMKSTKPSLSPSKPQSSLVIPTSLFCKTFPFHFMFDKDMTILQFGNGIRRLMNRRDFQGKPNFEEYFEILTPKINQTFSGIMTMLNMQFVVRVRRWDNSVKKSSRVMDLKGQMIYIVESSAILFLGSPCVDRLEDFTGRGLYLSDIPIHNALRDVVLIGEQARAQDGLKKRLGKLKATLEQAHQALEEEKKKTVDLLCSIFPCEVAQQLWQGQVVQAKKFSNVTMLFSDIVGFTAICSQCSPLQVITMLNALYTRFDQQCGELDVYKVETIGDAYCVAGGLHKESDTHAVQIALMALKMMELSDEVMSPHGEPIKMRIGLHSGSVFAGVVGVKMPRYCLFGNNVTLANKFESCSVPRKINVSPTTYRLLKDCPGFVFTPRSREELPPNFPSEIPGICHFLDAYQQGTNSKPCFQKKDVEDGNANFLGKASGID
T1 sequence (Q02153 1-619): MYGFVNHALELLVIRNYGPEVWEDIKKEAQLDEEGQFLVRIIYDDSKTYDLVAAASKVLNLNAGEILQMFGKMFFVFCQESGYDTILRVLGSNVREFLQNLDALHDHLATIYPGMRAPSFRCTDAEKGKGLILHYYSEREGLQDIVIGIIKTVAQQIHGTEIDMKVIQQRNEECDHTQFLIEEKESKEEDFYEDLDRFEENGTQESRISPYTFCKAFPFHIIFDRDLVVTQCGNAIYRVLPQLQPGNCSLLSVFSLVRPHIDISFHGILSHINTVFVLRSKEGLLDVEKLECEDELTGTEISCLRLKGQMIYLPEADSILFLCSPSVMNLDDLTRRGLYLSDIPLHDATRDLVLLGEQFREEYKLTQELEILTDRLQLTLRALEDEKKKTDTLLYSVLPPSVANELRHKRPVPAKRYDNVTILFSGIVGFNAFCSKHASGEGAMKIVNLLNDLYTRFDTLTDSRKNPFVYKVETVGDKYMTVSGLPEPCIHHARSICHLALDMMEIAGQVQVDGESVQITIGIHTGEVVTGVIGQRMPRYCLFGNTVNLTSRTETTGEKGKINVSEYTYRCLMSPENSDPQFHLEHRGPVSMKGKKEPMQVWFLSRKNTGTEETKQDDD
Briefly: Cell-based sGC Functional Assay (CASA Assay), cGMP generation. The conditions noted are these: CHO-K1/sGC cells, 1 hr at 37° C., cGMP by HTRF, 4P fit; presence or absence of 1 μM DETA-NO not given; read-out: IP (nM) (inflection point). The source says:
sGC is a heme-containing enzyme that converts GTP to secondary messenger cGMP. Increases in cGMP levels affect several physiological processes including vasorelaxation through multiple downstream pathways. […] Heme-dependent activators (HDAs) preferentially activate sGC containing a ferrous heme group. To determine the effect of sGC activators on enzyme activity, the CASA assay was developed to monitor the generation of cGMP in a cell line that stably expresses the heterodimeric sGC protein.
A CHO-K1 cell line stably expressing the sGC α1/β1 heterodimer was generated using a standard transfection protocol. CHO-K1 cells were transfected with plasmids pIREShyghsGCα1 and pIRESneo-hsGCβ1 simultaneously using FUGENE reagent. Clones that stably express both subunits were selected with hygromycin and neomycin for ˜2 weeks. Clone #7 was chosen for the assay and was designated CHO-K1/sGC. CHO-K1/sGC cells were maintained in F-K12 medium containing 10% heat-inactivated Fetal Bovine Serum (FBS), 100 μg/mL penicillin/streptomycin, 0.5 mg/mL hygromycin and 0.25 mg/mL G418. The cells were then cryopreserved in LN2. On the day of the assay, cells thawed and resuspended in EBSS Assay Buffer (Sigma, E3024) supplemented with 5 mM MgCl2, 10 mM HEPES (4-(2-hydroxyethyl)piperazine-1-ethanesulfonic acid) and 0.05% BSA (bovine serum albumin) (EAB) and cell density was then adjusted to 4×10^5/mL with EAB, IBMX (3-isobutyl-1-methylxanthin, 0.5 mM) was added to inhibit degradation of cGMP. Compounds were diluted from DMSO stock solutions and added to the assay at a final DMSO concentration of 2.5%. Cells were incubated with compounds in the presence and absence of 1 μM of Diethylenetriamine/nitric oxide adduct (DETA-NO; Sigma, 17018) for 1 hr at 37° C. At the end of the incubation period, the reaction was terminated and the cells were lysed with the detection reagents from Cisbio Kits. The level of intracellular cGMP was determined using an HTRF-based assay kit (CisBio, 62GM2PEC), which detects the displacement of a fluorescence labeled cGMP from its specific antibody. The cGMP produced by test compounds was directly compared to the maximum cGMP production (this value was set to equal 100% activation.) of the published sGC-HDA Compound A:
[drawing 300] (Example 1 in WO 2010/065275, published Jun. 10, 2010). The test compounds' activities were then expressed as a percentage of Compound A, the standard in every experiment. This percent activation was calculated either in the presence or absence of DETA-NO which was then plotted. IP and maximum fold induction was derived using ADA analysis software for 4P fit.
The compounds in the Examples of the instant invention had inflection points (IP) less than or equal to 10 μM and more particularly less than or equal to about 1 μM.
On the technique in general: Time-resolved FRET reads energy transfer from a long-lived donor to a nearby acceptor.
In the case of `Nc1nc(-c2cn3ncnc3c(CCCC(F)(F)F)n2)nc2c1C(c1nnc(C3CC3)o1)(C1CC1)C(=O)N2` (stereo not shown) [Example 104A, 4-amino-5-cyclopropyl-5-(5-cyclopropyl-1,3,4-oxadiazol-2-yl)-2-(8-(4,4,4-trifluorobutyl)-[1,2,4]triazolo[1,5-a]pyrazin-6-yl)-5H-pyrrolo[2,3-d] pyrimidin-6(7H)-one], the EC50 is 258 nM.

Take `Nc1nc(-c2cn3ncnc3c(CCCC(F)(F)F)n2)nc2c1C(c1ccc(Cl)cc1)(C1CC1)C(=O)N2` (stereo not shown) [Example 31B, 4-amino-5-(4-chlorophenyl)-5-cyclopropyl-2-(8-(4,4,4-trifluorobutyl)-[1,2,4]triazolo[1,5-a]pyrazin-6-yl)-5H-pyrrolo[2,3-d]pyrimidin-6(7H)-one]: the EC50 is 13 nM.

As for `CCCCc1nc(-c2nc(N)c3c(n2)NC(=O)C3(C)c2nnc(C(F)(F)F)o2)cn2ncnc12` (stereo not shown) [Example 102A, 4-amino-2-(8-butyl-[1,2,4]triazolo[1,5-a]pyrazin-6-yl)-5-methyl-5-(5-(trifluoromethyl)-1,3,4-oxadiazol-2-yl)-5H-pyrrolo[2,3-d]pyrimidin-6(7H)-one], the EC50 came out at 29.1 nM.

Take `CC1(c2ccccc2)C(=O)Nc2nc(-c3cn4ncnc4c(CCC(F)(F)C(F)(F)F)n3)nc(N)c21` (stereo not shown) [Example 12B, 4-amino-5-methyl-2-(8-(3,3,4,4,4-pentafluorobutyl)-[1,2,4]triazolo[1,5-a]pyrazin-6-yl)-5-phenyl-5H-pyrrolo[2,3-d]pyrimidin-6(7H)-one]: the EC50 turned out to be 11.1 nM.

`Cc1nc(C2(C)C(=O)Nc3nc(-c4cn5ncnc5c(CCCC(F)(F)F)n4)nc(N)c32)ccc1C(F)(F)F` (racemic) [Example 49B, 4-amino-5-methyl-5-(6-methyl-5-(trifluoromethyl)pyridin-2-yl)-2-(8-(4,4,4-trifluorobutyl)-[1,2,4]triazolo[1,5-a]pyrazin-6-yl)-5H-pyrrolo[2,3-d]pyrimidin-6(7H)-one]: the EC50 is 595 nM.

Regarding `CC1(c2ccc(Cl)cc2)C(=O)Nc2nc(-c3cn4ncnc4c(CCC(F)(F)F)n3)nc(N)c21` (stereo not shown) [Example 76A, 4-amino-5-(4-chlorophenyl)-5-methyl-2-(8-(3,3,3-trifluoropropyl)-[1,2,4]triazolo[1,5-a]pyrazin-6-yl)-5H-pyrrolo[2,3-d]pyrimidin-6(7H)-one], the EC50 is 154 nM.

Turning to `CC1(c2cnc(C(F)(F)F)cn2)C(=O)Nc2nc(-c3cn4ncnc4c(CCCC(F)(F)F)n3)nc(N)c21` (stereo not shown) [Example 50B, 4-amino-5-methyl-2-(8-(4,4,4-trifluorobutyl)-[1,2,4]triazolo[1,5-a]pyrazin-6-yl)-5-(5-(trifluoromethyl)pyrazin-2-yl)-5H-pyrrolo[2,3-d]pyrimidin-6(7H)-one], the EC50 came to 150 nM.

In the case of `CC1(c2ccc(Cl)cc2)C(=O)Nc2nc(-c3cn4ncnc4cn3)nc(N)c21` (stereo not shown) [Example 94A, 2-([1,2,4]triazolo[1,5-a]pyrazin-6-yl)-4-amino-5-(4-chlorophenyl)-5-methyl-5H-pyrrolo[2,3-d]pyrimidin-6(7H)-one], the EC50 was determined as 79.4 nM.

`Cc1nc2c(Cc3ccc(F)cc3)nc(-c3nc(N)c4c(n3)NC(=O)[C@@]4(C)c3ccc(F)cc3)cn2n1` [Example 87B, (S)-4-amino-2-(8-(4-fluorobenzyl)-2-methyl-[1,2,4]triazolo[1,5-a]pyrazin-6-yl)-5-(4-fluorophcnyl)-5-methyl-5H-pyrrolo[2,3-d]pyrimidin-6(7H)-one]: the EC50 is 80.2 nM.

Take `CC1(c2nnc(C3CC3)o2)C(=O)Nc2nc(-c3cn4ncnc4c(CCCC(F)(F)F)n3)nc(N)c21` (stereo not shown) [Example 99A, 4-amino-5-(5-cyclopropyl-1,3,4-oxadiazol-2-yl)-5-methyl-2-(8-(4,4,4-trifluorobutyl)-[1,2,4]triazolo[1,5-a]pyrazin-6-yl)-5H-pyrrolo[2,3-d]pyrimidin-6(7H)-one]: the EC50 is 47.5 nM.

Turning to `COc1cccc(Cc2nc(-c3nc(N)c4c(n3)NC(=O)[C@@]4(C)c3ccc(F)cc3)cn3ncnc23)c1` [Example 86B, (S)-4-amino-5-(4-fluorophenyl)-2-(8-(3-methoxybenzyl)-[1,2,4]triazolo[1,5-a]pyrazin-6-yl)-5-methyl-5H-pyrrolo[2,3-d]pyrimidin-6(7H)-one], the EC50 is 26.4 nM.

In the case of `CCCCc1nc(-c2nc(N)c3c(n2)NC(=O)C3(c2ccc(F)cn2)C2CC2)cn2ncnc12` (stereo not shown) [Example 66A, 4-amino-2-(8-butyl-[1,2,4]triazolo[1,5-a]pyrazin-6-yl)-5-cyclopropyl-5-(5-fluoropyridin-2-yl)-5H-pyrrolo[2,3-d]pyrimidin-6(7H)-one], the EC50 was determined as 34.2 nM.

For the molecule `C[C@@]1(c2ccc(F)cc2)C(=O)Nc2nc(-c3cn4ncnc4c(Cc4ccc(F)cc4)n3)nc(N)c21` [Example 85B, (S)-4-amino-2-(8-(4-fluorobenzyl)-[1,2,4]triazolo[1,5-a]pyrazin-6-yl)-5-(4-fluorophenyl)-5-methyl-5H-pyrrolo[2,3-d]pyrimidin-6(7H)-one], the EC50 came out at 10.6 nM.

Consider `Cc1ccc(C2(C)C(=O)Nc3nc(-c4cn5ncnc5c(CCC(F)(F)C(F)(F)F)n4)nc(N)c32)nc1` (stereo not shown) [Example 19B, 4-amino-5-methyl-5-(5-methylpyridin-2-yl)-2-(8-(3,3,4,4,4-pentafluorobutyl)-[1,2,4]triazolo[1,5-a]pynizin-6-yl)-5H-pyrrolo[2,3-d]pyrimidin-6(7H)-one], for which the EC50 amounted to 14.7 nM.

Regarding `CC1(c2ccccn2)C(=O)Nc2nc(-c3cn4ncnc4c(CCCC(F)(F)F)n3)nc(N)c21` (stereo not shown) [Example 36B, 4-amino-5-methyl-5-(pyridin-2-yl)-2-(8-(4,4,4-trifluorobutyl)-[1,2,4]triazolo[1,5-a]pyrazin-6-yl)-5H-pyrrolo[2,3-d]pyrimidin-6(7H)-one], the EC50 is 56.5 nM.

Consider `CCCc1nc(-c2nc(N)c3c(n2)NC(=O)C3(c2ccc(F)cn2)C2CC2)cn2ncnc12` (stereo not shown) [Example 59A, 4-amino-5-cyclopropyl-5-(5-fluoropyridin-2-yl)-2-(8-propyl-[1,2,4]triazolo[1,5-a]pyrazin-6-yl)-5H-pyrrolo[2,3-d]pyrimidin-6(7H)-one], for which the EC50 is 263 nM.
